Test results as given in patent publication US7592000B2, “Method of tanning human body by mysting or immersion at elevated temperature” (Merck Patent GmbH, priority 2004, dated 2009).

What was measured:
[1] = monomer/dimer equilibrium of DHA dissolved in water; type: physicochemical; conditions: DHA solutions at 30-50° C. versus 20° C.
Description: It is assumed that the effect, advantageous according to the invention, of the improved tanning effect at elevated temperatures in the case of 1,3-dihydroxyacetone is connected with the following mechanism. As a raw material, DHA is in the form of a powder and consists of dimers. Dissolved in water, some of the dimers convert to the active monomeric form, which brings about the tanning reaction. At an elevated water temperature, the amount of monomers increases. […] At the same time, the elevated temperature increases the reaction rate of the tanning reaction. […] It is therefore preferred according to the invention when the solution of the self-tanning substance is tempered for about 15 min, but at least about 10 min, before the solution is applied to the human skin.

[2] = over the entire pH range; cited from earlier work

Row | more active DHA monomers present than in DHA solutions at 20° C. [1] | Structure (SMILES) | antioxidative activity relative to the investigated structures [2]
1 | up to 30% | O=C(CO)CO [DHA, 1,3-dihydroxyacetone] | 
2 |  | O=c1c(O)c(-c2ccc(O)c(O)c2)oc2cc(O)cc(O)c12 [quercetin, 3,3′,4′,5,7-pentahydroxyflavone] | highest activity of the investigated structures
